Measurements: patent US20260001893A1, “SMALL MOLECULE MODULATORS OF STAT6” (Gilead Sciences, Inc., priority 2024, published 2026)

Tests used:
[1] = target: T1, Human STAT6 (truncated, aa122-658, with N-terminal His-tag) (Homo sapiens, UniProt P42226); assay: Surface plasmon resonance (SPR) assay, binding to human STAT6; conditions: Biacore 8K, 25° C, immobilized human STAT6 on CM5 chip, multi-cycle kinetics; geometric mean
T1 construct: Human STAT6 (truncated, aa122-658, with N-terminal His-tag, expressed in insect cells); His-tag (N); made in house; host or cells: insect cells
T1 sequence (P42226 122-658): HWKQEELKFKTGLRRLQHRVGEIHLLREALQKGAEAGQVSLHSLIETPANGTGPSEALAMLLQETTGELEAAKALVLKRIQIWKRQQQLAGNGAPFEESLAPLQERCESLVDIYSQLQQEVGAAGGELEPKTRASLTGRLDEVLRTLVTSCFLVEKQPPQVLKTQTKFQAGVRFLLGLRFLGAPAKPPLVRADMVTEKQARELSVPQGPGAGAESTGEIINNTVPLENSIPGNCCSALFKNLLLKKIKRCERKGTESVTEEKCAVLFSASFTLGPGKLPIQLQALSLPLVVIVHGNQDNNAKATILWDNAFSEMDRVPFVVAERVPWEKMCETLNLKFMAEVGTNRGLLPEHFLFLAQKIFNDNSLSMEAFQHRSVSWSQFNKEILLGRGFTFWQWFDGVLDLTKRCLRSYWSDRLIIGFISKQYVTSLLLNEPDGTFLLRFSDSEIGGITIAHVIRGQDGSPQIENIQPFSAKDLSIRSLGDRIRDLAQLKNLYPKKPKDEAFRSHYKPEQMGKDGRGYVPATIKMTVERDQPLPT
Protocol: Surface Plasmon Resonance Assay
Biacore instruments from the 8K-series (Cytiva) were used, and measurements were performed at 25° C. Human STAT6 (truncated, aa122-658, with N-terminal His-tag, expressed in insect cells) was immobilized in the active flow cells on a CM5 chip using amine-coupling (default settings) at 10 μg/ml in 10 mM acetate buffer pH 5.5, at a contact time of 120-420 sec. and a flow rate of 10 μl/min. Reference flow cells were deactivated using blank immobilization. PBS-P+(Cytiva) supplemented with 2% DMSO was used as running buffer, and solvent correction was applied. Compounds were tested by multi-cycle kinetics injections using a contact time of 60 sec., dissociation time of up to 300 sec., and a flow rate of 30 μl/min.
Solvent-corrected, reference-subtracted and blank-corrected data was processed and binding isotherms were fitted according to a single report point from each sensorgram (Standard: Late binding (5 sec. before injection end); alternative: Earlier report point according to binding profile). Data fitting was done both with unfixed Rmax and with Rmax fixed to the theoretical value* assuming 1:1 binding to allow processing of data from both weak and strong binders as well as to evaluate binding stoichiometry.
Positive controls were run at the beginning, during, and at the end of the screen to evaluate surface activity.
*Equation for calculation of the theoretical Rmax(Theoretical Rmax=(MW Analyte/MW Ligand)×immobilization level).

[2] = system: Eotaxin-3 (CCL26) release in human whole blood stimulated with IL-4; assay: Human whole blood eotaxin-3 assay (IL-4 stimulated eotaxin-3 release); assay type: cell-based; conditions: Homo sapiens, 48 h, human whole blood stimulated with recombinant human IL-4, 48 h; inhibition of eotaxin-3 release; given for test compounds with >80% Emax; geometric mean
Summary of the method: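 Eotaxin-3 (CCL26) release was quantified by MSD immunoassay in supernatants of human heparinised whole blood after 48 h at 37° C with IL-4 ([…] final). Compounds, in 4-fold dilutions at 0.5% DMSO, were added 2 h before stimulation.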

| Kd [1] [nM] | EC50 [2] [nM] | SMILES |
| --- | --- | --- |
| 81.3 |  | CNc1ccn(-c2ccnc3c2cc(CN2CCC(c4ccc(C(=O)N(C)C)cc4)C(F)(F)C2)n3C)c(=O)c1 (single isomer, unassigned) [Example 1f2] |
| 67.5 |  | CNc1ccn(-c2ccnc3c2cc(CN2CC[C@H](c4ccc(C(=O)N(C)C)cc4)[C@H](F)C2)n3C)c(=O)c1 (single isomer, unassigned) [Example 1f6] |
| 338 |  | CNc1ccn(-c2ccnc3c2cc([C@H](C)N2CCC(c4ccc(C(=O)N(C)C)cc4)CC2)n3C)c(=O)c1 (single isomer, unassigned) [Example 1m72] |
| 224 |  | CN(C)C(=O)c1ccc(C2CCN(Cc3cc4c(-n5ncc(N)cc5=O)ccnc4n3C)CC2)cc1 [Example 1ab4, 4-(1-((4-(4-Amino-6-oxopyridazin-1 (6H)-yl)-1-methyl-1H-pyrrolo[2,3-b]pyridin-2-yl)methyl)piperidin-4-yl)-N,N-dimethylbenzamide] |
| 4090 |  | CNc1cc(=O)n(-c2ccnc3c2cc(CN2CCC(c4ccc(C(=O)N(C)C)cc4)CC2)n3C)cn1 [Example 1ac1, N,N-Dimethyl-4-(1-((1-methyl-4-(4-(methylamino)-6-oxopyrimidin-1 (6H)-yl)-1H-pyrrolo[2,3-b]pyridin-2-yl)methyl)piperidin-4-yl)benzamide] |
| 91.8 |  | Cc1cn(-c2ccnc3c2cc(CN2CCC(c4ccc(C(=O)N(C)C)cc4)CC2)n3C)c(=O)nc1N [Example 1ac3, 4-(1-((4-(4-Amino-5-methyl-2-oxopyrimidin-1 (2H)-yl)-1-methyl-1H-pyrrolo[2,3-b]pyridin-2-yl)methyl)piperidin-4-yl)-N,N-dimethylbenzamide] |
| 175 |  | CN(C)C(=O)c1ccc(C2CCN(Cc3cc4c(-n5ccc(NC(=O)OC(C)(C)C)cc5=O)ccnc4n3C)CC2)cc1 [Example 1d2, tert-Butyl N-[1-[2-[[4-[4-(dimethylcarbamoyl)phenyl]-1-piperidyl]methyl]-1-methyl-pyrrolo[2,3-b]pyridin-4-yl]-2-oxo-4-pyridyl]carbamate] |
| 178 |  | CCOC(=O)Nc1ccn(-c2ccnc3c2cc(CN2CCC(c4ccc(C(=O)N(C)C)cc4)CC2)n3C)c(=O)c1 [Example 1d5, Ethyl N-[1-[2-[[4-[4-(dimethylcarbamoyl)phenyl]-1-piperidyl]methyl]-1-methyl-pyrrolo[2,3-b]pyridin-4-yl]-2-oxo-4-pyridyl]carbamate] |
| 152 |  | COC(=O)Nc1ccn(-c2ccnc3c2cc(CN2CCC(c4ccc(C(=O)N(C)C)cc4)CC2)n3C)c(=O)c1 [Example 1d6, Methyl N-[1-[2-[[4-[4-(dimethylcarbamoyl)phenyl]-1-piperidyl]methyl]-1-methyl-pyrrolo[2,3-b]pyridin-4-yl]-2-oxo-4-pyridyl]carbamate] |
| 99.8 |  | CN(C)C(=O)c1ccc(C2CCN(Cc3cc4c(-n5ccc(NCC6CC6)cc5=O)ccnc4n3C)CC2)cc1 [Example 1d7, 4-[1-[[4-[4-(cyclo-Propylmethylamino)-2-oxo-1-pyridyl]-1-methyl-pyrrolo[2,3-b]pyridin-2-yl]methyl]-4-piperidyl]-N,N-dimethyl-benzamide] |
| 4970 |  | CN(C)C(=O)c1ccc(C2CCN(Cc3cc4c(-n5ccc(NC(C)(C)C)cc5=O)ccnc4n3C)CC2)cc1 [Example 1d9, 4-[1-[[4-[4-(tert-Butylamino)-2-oxo-1-pyridyl]-1-methyl-pyrrolo[2,3-b]pyridin-2-yl]methyl]-4-piperidyl]-N,N-dimethyl-benzamide] |
| 22.8 |  | CCN(CC)C(=O)c1ccc(C2CCN(Cc3cc4c(-n5ccc(NC)cc5=O)ccnc4n3C)CC2)cc1 [Example 1d10, N,N-Diethyl-4-[1-[[1-methyl-4-[4-(methylamino)-2-oxo-1-pyridyl]pyrrolo[2,3-b]pyridin-2-yl]methyl]-4-piperidyl]benzamide] |
| 38.4 |  | CCCN(CCC)C(=O)c1ccc(C2CCN(Cc3cc4c(-n5ccc(NC)cc5=O)ccnc4n3C)CC2)cc1 [Example 1d11, N,N-Dipropyl-4-[1-[[1-methyl-4-[4-(methylamino)-2-oxo-1-pyridyl]pyrrolo[2,3-b]pyridin-2-yl]methyl]-4-piperidyl]benzamide] |
| 31 |  | CN(C)C(=O)c1ccc(C2CCN(Cc3cc4c(-n5ccc(NCc6ccccc6)cc5=O)ccnc4n3C)CC2)cc1 [Example 1d12, 4-[1-[[4-[4-(Benzylamino)-2-oxo-1-pyridyl]-1-methyl-pyrrolo[2,3-b]pyridin-2-yl]methyl]-4-piperidyl]-N,N-dimethyl-benzamide] |
| 49 |  | CN(C)C(=O)c1ccc(C2CCN(Cc3cc4c(-n5ccc(NCc6ccc(Cl)cc6)cc5=O)ccnc4n3C)CC2)cc1 [Example 1d13, 4-[1-[[4-[4-[(4-Chlorophenyl)methylamino]-2-oxo-1-pyridyl]-1-methyl-pyrrolo[2,3-b]pyridin-2-yl]methyl]-4-piperidyl]-N,N-dimethyl-benzamide] |
| 124 |  | CN(C)C(=O)c1ccc(C2CCN(Cc3cc4c(-n5ccc(NCc6ccc(F)c(F)c6)cc5=O)ccnc4n3C)CC2)cc1 [Example 1d14, 4-[1-[[4-[4-[(3,4-Difluorophenyl)methylamino]-2-oxo-1-pyridyl]-1-methyl-pyrrolo[2,3-b]pyridin-2-yl]methyl]-4-piperidyl]-N,N-dimethyl-benzamide] |
|  | 229 | CNc1ccn(-c2ccnc3c2cc([C@H](C)N2CC=C(c4c(C)cc(C(=O)N(C)C)cc4F)CC2)n3C)c(=O)c1OC [Example 1m138, (S)-3-fluoro-4-(1-(1-(4-(3-methoxy-4-(methylamino)-2-oxopyridin-1 (2H)-yl)-1-methyl-1H-pyrrolo[2,3-b]pyridin-2-yl)ethyl)-1,2,3,6-tetrahydropyridin-4-yl)-N,N,5-trimethylbenzamide] |
|  | 50.2 | CNc1ccn(-c2ccnc3c2cc(C(C)N2CC=C(c4c(C)cc(C(=O)N(C)C)cc4F)C(F)(F)C2)n3C)c(=O)c1 (stereo not drawn) [Example 1m139, 4-(3,3-difluoro-1-(1-(1-methyl-4-(4-(methylamino)-2-oxopyridin-1 (2H)-yl)-1H-pyrrolo[2,3-b]pyridin-2-yl)ethyl)-1,2,3,6-tetrahydropyridin-4-yl)-3-fluoro-N,N,5-trimethylbenzamide] |
|  | 16.1 | CNc1c(F)cn(-c2ccnc3c2cc([C@H](C)N2CC=C(c4c(C)cc(C(=O)N(C)C)cc4F)CC2)n3C)c(=O)c1F [Example 1m140, (S)-4-(1-(1-(4-(3,5-difluoro-4-(methylamino)-2-oxopyridin-1 (2H)-yl)-1-methyl-1H-pyrrolo[2,3-b]pyridin-2-yl)ethyl)-1,2,3,6-tetrahydropyridin-4-yl)-3-fluoro-N,N,5-trimethylbenzamide] |
|  | 156 | CN(C)C(=O)c1ccc(C2=CCN(Cc3cc4c(-n5ccc6c(c5=O)CCN6)ccnc4n3C)CC2)c(OC(F)(F)F)c1 [Example 1m146, NN-dimethyl-4-(1-((1-methyl-4-(4-oxo-1,2,3,4-tetrahydro-5H-pyrrolo[3,2-c]pyridin-5-yl)-1H-pyrrolo[2,3-b]pyridin-2-yl)methyl)-1,2,3,6-tetrahydropyridin-4-yl)-3-(trifluoromethoxy)benzamide] |
|  | 60.1 | [2H]C([2H])([2H])N(C(=O)c1ccc(C2CCN([C@@H](C)c3cc4c(-n5ccc6[nH]nc(C(F)(F)F)c6c5=O)ccnc4n3C)CC2)cc1)C([2H])([2H])[2H] [Example 1m147, (S)—N,N-bis(methyl-d3)-4-(1-(1-(1-methyl-4-(4-oxo-3-(trifluoromethyl)-1,4-dihydro-5H-pyrazolo[4,3-c]pyridin-5-yl)-1H-pyrrolo[2,3-b]pyridin-2-yl)ethyl)piperidin-4-yl)benzamide] |
